Measurements as given in patent US20160038505A1, “METHODS AND COMPOSITIONS FOR TREATING IMPULSE CONTROL DISORDER, ANXIETY-RELATED DISORDERS, VIOLENCE AND/OR ANGER, OR REGULATING FOOD INTAKE” (priority 2014, published 2016).

Experiment: Plasma toxicokinetics in dogs, 14 day repeat dose study
Type: in vivo, dog
Description: Noribogaine HCl was administered to groups of 4 male and 4 female dogs by single oral gavage daily for 14 days at doses of 0, 0.5, 1.0 and 5.0 mg/kg/day. An additional group of 4 male and 4 female dogs received either the vehicle control or 5.0 mg/kg/day for 14 days and were held for an additional 28 days after cessation of dosing to assess recovery from any potential drug-induced changes. The study was conducted under GLP guidelines and included comprehensive examinations of clinical signs, body weight, clinical pathology parameters, ophthalmologic examinations, ECG recordings and analyses of plasma for bioanalytical measurement of drug levels at appropriate intervals during the study. At the termination of the dosing phase and at the termination of the recovery phase, all dogs were subjected to a complete post-mortem examination including gross examination of major organs and histologic examination of an extensive list of tissues. Additional sections of brain were obtained from cerebrum, cerebellus, brain stem and spinal cord and examined histologically to evaluate potential effects on brain histopathology. In addition, these sections were examined with immunohistochemical stains for GFAP for evidence of gliosis and Calbindin for a more comprehensive examination of cerebellar Purkinje cells.

[1] = dog, plasma, po, female dogs, 5.0 mg/kg, D 14

CC[C@H]1CC2C[C@H]3c4[nH]c5ccc(O)cc5c4CCN(C2)C13 [noribogaine]
Cmax at 1 day of dosing (dog, plasma, po, female dogs, 0.5 mg/kg, D 1): 25.3 ng/mL
Cmax at 14 day of dosing (dog, plasma, po, female dogs, 0.5 mg/kg, D 14): 29.8 ng/mL
Cmax at 1 day of dosing (dog, plasma, po, female dogs, 1.0 mg/kg, D 1): 68.5 ng/mL
Cmax at 14 day of dosing (dog, plasma, po, female dogs, 1.0 mg/kg, D 14): 74.1 ng/mL
Cmax at 1 day of dosing (dog, plasma, po, female dogs, 5.0 mg/kg, D 1): 691 ng/mL
Cmax at 14 day of dosing [1]: 683 ng/mL
Tmax at 14 day of dosing [1]: 0.6 h
AUC0-24 h (female dogs, 0.5 mg/kg, D 1): 40.4 ng·h/mL
AUC0-last (female dogs, 0.5 mg/kg, D 1): 31.5 ng·h/mL
AUC0-∞ (female dogs, 0.5 mg/kg, D 1): 44.9 ng·h/mL
T1/2 (female dogs, 0.5 mg/kg, D 1): 1.0 h
Tmax (female dogs, 0.5 mg/kg, D 1): 0.5 h
AUC0-24 h (female dogs, 0.5 mg/kg, D 14): 55.0 ng·h/mL
AUC0-last (female dogs, 0.5 mg/kg, D 14): 35.4 ng·h/mL
AUC0-∞ (female dogs, 0.5 mg/kg, D 14): 45.7 ng·h/mL
T1/2 (female dogs, 0.5 mg/kg, D 14): 1.1 h
Tmax (female dogs, 0.5 mg/kg, D 14): 1.0 h
AUC0-24 h (female dogs, 1.0 mg/kg, D 1): 176.2 ng·h/mL
AUC0-last (female dogs, 1.0 mg/kg, D 1): 148.9 ng·h/mL
AUC0-∞ (female dogs, 1.0 mg/kg, D 1): 165.3 ng·h/mL
T1/2 (female dogs, 1.0 mg/kg, D 1): 1.4 h
Tmax (female dogs, 1.0 mg/kg, D 1): 0.8 h
AUC0-24 h (female dogs, 1.0 mg/kg, D 14): 203.7 ng·h/mL
AUC0-last (female dogs, 1.0 mg/kg, D 14): 169.0 ng·h/mL
AUC0-∞ (female dogs, 1.0 mg/kg, D 14): 197.0 ng·h/mL
T1/2 (female dogs, 1.0 mg/kg, D 14): 1.6 h
Tmax (female dogs, 1.0 mg/kg, D 14): 0.5 h
AUC0-24 h (female dogs, 5.0 mg/kg, D 1): 3367.9 ng·h/mL
AUC0-last (female dogs, 5.0 mg/kg, D 1): 3367.9 ng·h/mL
AUC0-∞ (female dogs, 5.0 mg/kg, D 1): 3425.7 ng·h/mL
T1/2 (female dogs, 5.0 mg/kg, D 1): 4.3 h
AUC0-24 h (female dogs, 5.0 mg/kg, D 14): 5951.2 ng·h/mL
AUC0-last (female dogs, 5.0 mg/kg, D 14): 5951.2 ng·h/mL
AUC0-∞ (female dogs, 5.0 mg/kg, D 14): 6283.2 ng·h/mL
T1/2 (female dogs, 5.0 mg/kg, D 14): 5.7 h
AUC0-24 h (male dogs, 0.5 mg/kg, D 1): 59.7 ng·h/mL
AUC0-last (male dogs, 0.5 mg/kg, D 1): 46.6 ng·h/mL
AUC0-∞ (male dogs, 0.5 mg/kg, D 1): 67.8 ng·h/mL
Cmax (male dogs, 0.5 mg/kg, D 1): 28.8 ng/mL
T1/2 (male dogs, 0.5 mg/kg, D 1): 1.3 h
Tmax (male dogs, 0.5 mg/kg, D 1): 0.7 h
AUC0-24 h (male dogs, 0.5 mg/kg, D 14): 64.5 ng·h/mL
AUC0-last (male dogs, 0.5 mg/kg, D 14): 53.2 ng·h/mL
AUC0-∞ (male dogs, 0.5 mg/kg, D 14): 68.2 ng·h/mL
Cmax (male dogs, 0.5 mg/kg, D 14): 29.4 ng/mL
T1/2 (male dogs, 0.5 mg/kg, D 14): 1.3 h
Tmax (male dogs, 0.5 mg/kg, D 14): 0.7 h
AUC0-24 h (male dogs, 1.0 mg/kg, D 1): 119.8 ng·h/mL
AUC0-last (male dogs, 1.0 mg/kg, D 1): 102.5 ng·h/mL
AUC0-∞ (male dogs, 1.0 mg/kg, D 1): 120.8 ng·h/mL
Cmax (male dogs, 1.0 mg/kg, D 1): 58.6 ng/mL
T1/2 (male dogs, 1.0 mg/kg, D 1): 1.2 h
Tmax (male dogs, 1.0 mg/kg, D 1): 0.9 h
AUC0-24 h (male dogs, 1.0 mg/kg, D 14): 210.4 ng·h/mL
AUC0-last (male dogs, 1.0 mg/kg, D 14): 172.3 ng·h/mL
AUC0-∞ (male dogs, 1.0 mg/kg, D 14): 195.7 ng·h/mL
Cmax (male dogs, 1.0 mg/kg, D 14): 67.6 ng/mL
T1/2 (male dogs, 1.0 mg/kg, D 14): 1.8 h
Tmax (male dogs, 1.0 mg/kg, D 14): 0.8 h
AUC0-24 h (male dogs, 5.0 mg/kg, D 1): 3515.0 ng·h/mL
AUC0-last (male dogs, 5.0 mg/kg, D 1): 3515.0 ng·h/mL
AUC0-∞ (male dogs, 5.0 mg/kg, D 1): 3630.5 ng·h/mL
Cmax (male dogs, 5.0 mg/kg, D 1): 693 ng/mL
T1/2 (male dogs, 5.0 mg/kg, D 1): 4.7 h
AUC0-24 h (male dogs, 5.0 mg/kg, D 14): 6403.3 ng·h/mL
AUC0-last (male dogs, 5.0 mg/kg, D 14): 6403.3 ng·h/mL
AUC0-∞ (male dogs, 5.0 mg/kg, D 14): 6961.4 ng·h/mL
Cmax (male dogs, 5.0 mg/kg, D 14): 716 ng/mL
T1/2 (male dogs, 5.0 mg/kg, D 14): 6.5 h
Tmax (male dogs, 5.0 mg/kg, D 14): 0.9 h
